The results in this text go back to patent US20020037559A1, “PROCESS FOR PRODUCING N-PROTECTED D-PROLINE DERIVATIVES” (priority 1996, published 2002).

Entries after “also recorded” stand apart in the source; their conditions may differ.

Assay [1] concerns N-acyl-L-proline acylase of Arthrobacter sp. HSZ5. Nature of the assay: Effect of product inhibition on the activity of the N-acyl-L-proline acylase. Format: cell-based. The settings on record: for Inhibition of the enzymatic activity of N-acyl-L-proline acylase: cells pre-incubated 30 minutes (30° C., pH 6.4) with product, then 30° C., pH 6.5, 50 g/l N-Z-L-proline; for Manner of inhibition: from dependence of inhibition on concentration. The method, then:
Arthrobacter sp. HSZ5 was grown (30° C., 120 rpm) in the medium described in Table 1 using fructose (5 […]) as the C or N source. After reaching the desired cell density, the cells were harvested by centrifugation, washed in sodium chloride solution (0.9%) and finally also resuspended in the latter. […] As the 100% value, the result of the batch at pH=7.0 was employed. d) Effect of product inhibition on the activity of the N-acyl-L-proline acylase of Arthrobacter sp. HSZ5 cells having N-acyl-L-proline acylase activity were prepared as described under 9a). […] As the 100% value, the results of the batch was employed here which had been incubated without addition of one of the products.

Assay [2] deals with Arthrobacter sp. HSZ5. The assay is described as follows: Biotransformation of N-Z-DL-proline in 450 l fermenter. The assay is classed as cell-based. The settings on record: pH 7.5-8.5, 30° C. The source says: d) Arthrobacter sp. […] The enzymatic activity was then induced by addition of 4 kg of 50% (w/w) N-Z-DL-proline solution. […] The cells were removed by ultracentrifugation from the 320 kg of culture finally obtained and an aliquot (1444 g) of the cell-free fermentation broth was worked up as described under 6a).

Assay [3] concerns Arthrobacter sp. HSZ5. The assay is described as follows: Enzymatic hydrolysis of N-Z-DL-proline by resting cells. The settings on record: after 60 minutes; N-Z-DL-proline 50 g/l, OD650=30, 30° C., pH 7.0, HPLC. Format: cell-based. The method, then: a) Arthrobacter sp. […] The cells were harvested and washed as described previously. The resting cells (OD650=30) were incubated at 30° C. with N-Z-DL-proline (50 g/l) under pH stasis (pH 7.0) and with stirring.

The subject of assay [4] is N-acyl-L-proline acylase. Nature of the assay: Inducers of N-acyl-L-proline acylase, resting cells tested against N-Z-L-proline and N-Z-D-proline. The assay is classed as cell-based, Arthrobacter sp. HSZ5. The settings on record: for Induction of the enzymatic activity (N-acyl-L-proline acylase): 1 g/l added to minimal medium with fructose 5 g/l and L-glutamate 2 g/l, proline detected by HPLC. The method, then: Arthrobacter sp. HSZ5 was grown in minimal medium (Example 1) using fructose (5 g/l) as the C source and L-glutamate (2 g/l) as the N source.

The next assay concerns Pseudomonas putida K32. Nature of the assay: Growth using N-protected amino acids as the sole N source. The assay is classed as cell-based. The settings on record: minimal medium, fructose 5 g/l as C source, N source 5 g/l, 30° C., 120 rpm. The method, then:
(§1) Arthrobacter sp. HSZ5, Alcaligenes xylosoxidans ssp. denitrificans HSZ17, Agrobacterium/Rhizobium HSZ30, Bacillus simplex K2, Alcaligenes piechaudii K4 and Pseudomonas putida […] were grown (30° C., 120 rpm) in the medium described in Table 1 using fructose (5 g/l) as the C source. As the sole N source (5 g/l), in each case various N-protected amino acids were added. On reaching a cell density of OD650>0.5, the batch was assessed as positive.

The test system of assay [5] is Alcaligenes xylosoxidans ssp. denitrificans HSZ17. Described as above. The assay is classed as cell-based. The settings on record: minimal medium, fructose 5 g/l as C source, N source 5 g/l, 30° C., 120 rpm. The method, then:
as §1

The next assay relates to Bacillus simplex K2. The assay is described as above. The assay is classed as cell-based. Conditions: minimal medium, fructose 5 g/l as C source, N source 5 g/l, 30° C., 120 rpm. As for the experimental part:
as §1

In assay [6] the test system is Agrobacterium/Rhizobium HSZ30. The description is as above. The assay is classed as cell-based. Conditions: minimal medium, fructose 5 g/l as C source, N source 5 g/l, 30° C., 120 rpm. The method, then: as §1
Assay [7] has as its system Alcaligenes piechaudii K4. Described as above. The assay is classed as cell-based. Conditions: minimal medium, fructose 5 g/l as C source, N source 5 g/l, 30° C., 120 rpm. The method, then:
as §1

Assay [8] concerns Arthrobacter sp. HSZ5. The assay is described as above. Format: cell-based. Conditions: minimal medium, fructose 5 g/l as C source, N source 5 g/l, 30° C., 120 rpm. The method, then:
as §1

The subject of assay [9] is N-acyl-L-proline acylase. Nature of the assay: Substrate specificity of N-acyl-L-proline acylase. Format: biochemical, Arthrobacter sp. HSZ5. The source says: The enzymes according to the invention, the N-acyl-L-proline acylases, can be obtained, for example, by customary expert disruption of the described microorganism cells, preferably the enzymes are obtained from Arthrobacter sp. HSZ5 (DSM 10329). For this, for example, the ultrasound, French press or lysozyme method can be used. The enzymes are characterized by the following properties:
N-acyl-L-proline acylase, characterized by the following properties:

`OCc1ccccc1` [benzyl alcohol]: in assay [1], the “Inhibition of the enzymatic activity of N-acyl-L-proline acylase” value (from here on “Inhibition … of N-acyl-L-proline acylase”) is given as “drastic lowering of the enzyme activity with increasing concentration; also recorded: inhibitory action” and the Manner of inhibition entry is “non-competitive”.
For the compound `O=C(O)[C@@H]1CCCN1C(=O)OCc1ccccc1` [N-Z-L-proline, N-benzyloxycarbonyl-L-proline], the “Maximal rate of hydrolysis” value in the assay with Arthrobacter sp. HSZ5 [2] is “about 12 g of N-Z-L-proline hydrolysed/l×h”. Further, the “Hydrolysis by resting cells” value in the assay on Arthrobacter sp. HSZ5 [3] is on record as “almost completely hydrolysed”. In addition, the “Induction of the enzymatic activity (N-acyl-L-proline acylase)” value in the assay on N-acyl-L-proline acylase [4] is recorded as “induced the desired enzymatic activity”. For the same compound, the “Acceptance as substrate by induced resting cells” value with N-acyl-L-proline acylase [4] (resting cells, tested against N-Z-L-proline and N-Z-D-proline) was “accepted as the substrate”. Moreover, the “Growth using N-protected amino acid as the sole N source” value (“Growth using N-protected amino acid” below) in the assay on Pseudomonas putida K32 is on record as “+ (On reaching a cell density of OD650>0.5, the batch was assessed as positive)”; in assay [5], “+ (On reaching a cell density of OD650>0.5, the batch was assessed as positive)”; with Bacillus simplex K2, “+ (On reaching a cell density of OD650>0.5, the batch was assessed as positive)”; in [6], “+ (On reaching a cell density of OD650>0.5, the batch was assessed as positive)”; in [7] it was “+ (On reaching a cell density of OD650>0.5, the batch was assessed as positive)”; in the assay with Arthrobacter sp. HSZ5 [8], “+ (On reaching a cell density of OD650>0.5, the batch was assessed as positive)”.
Regarding `O=C(O)C1CCCN1C(=O)OCc1ccccc1` (racemic) [N-Z-DL-proline], the “Induction of the enzymatic activity (N-acyl-L-proline acylase)” value with N-acyl-L-proline acylase [4] is listed as “induced the desired enzymatic activity”.
On to `O=C(O)[C@@H]1CCCN1C(=O)c1ccccc1` [N-benzoyl-L-proline], for which the “Growth using N-protected amino acid” value with Pseudomonas putida K32 is listed as “+ (On reaching a cell density of OD650>0.5, the batch was assessed as positive)”; in the assay with Arthrobacter sp. HSZ5 [8], “+ (On reaching a cell density of OD650>0.5, the batch was assessed as positive)”.
For `CC(C)COC(=O)N1CCC[C@H]1C(=O)O` [N-isobutoxycarbonyl-L-proline], the “Growth using N-protected amino acid” value in the assay with Pseudomonas putida K32 was “+ (On reaching a cell density of OD650>0.5, the batch was assessed as positive)”; in assay [7], “+ (On reaching a cell density of OD650>0.5, the batch was assessed as positive)”; with Arthrobacter sp. HSZ5 [8] it was “+ (On reaching a cell density of OD650>0.5, the batch was assessed as positive)”.
Regarding `O=C(O)[C@H]1CCCN1C(=O)OCc1ccccc1` [N-Z-D-proline, N-benzyloxycarbonyl-D-proline], in assay [1], the “Inhibition … of N-acyl-L-proline acylase” value was “drastic lowering of the enzyme activity with increasing concentration” and the Manner of inhibition result was “competitive inhibitor”. Further, the “Inhibition … of N-acyl-L-proline acylase” value in [1] (listed as N-benzyloxycarbonyl-D-proline) was “inhibitory action”. Also, in the assay on Arthrobacter sp. HSZ5 [3], the “Hydrolysis by resting cells” value was “unchanged”.
With `O=C(O)CCC(=O)N1CCC[C@H]1C(=O)O` [N-succinyl-L-proline], the “Growth using N-protected amino acid” value with Pseudomonas putida K32 is given as “+ (On reaching a cell density of OD650>0.5, the batch was assessed as positive)”.
Consider `CC(=O)N1CCC[C@H]1C(=O)O` [N-acetyl-L-proline], for which the “Growth using N-protected amino acid” value with Pseudomonas putida K32 is “+ (On reaching a cell density of OD650>0.5, the batch was assessed as positive)”; in assay [5], “+ (On reaching a cell density of OD650>0.5, the batch was assessed as positive)”; in assay [6], “+ (On reaching a cell density of OD650>0.5, the batch was assessed as positive)”; with Arthrobacter sp. HSZ5 [8], “+ (On reaching a cell density of OD650>0.5, the batch was assessed as positive)”.
As to `C[C@H](NC(=O)OCc1ccccc1)C(=O)O` [N-Z-L-alanine, N-benzyloxycarbonyl-L-alanine], the “Growth using N-protected amino acid” value with Pseudomonas putida K32 is “+ (On reaching a cell density of OD650>0.5, the batch was assessed as positive)”; in the assay on Bacillus simplex K2, “+ (On reaching a cell density of OD650>0.5, the batch was assessed as positive)”; in assay [6], “+ (On reaching a cell density of OD650>0.5, the batch was assessed as positive)”; in the assay on Arthrobacter sp. HSZ5 [8] it was “+ (On reaching a cell density of OD650>0.5, the batch was assessed as positive)”. The “Substrate specificity (hydrolysis by the enzyme)” value with N-acyl-L-proline acylase [9] is reported as “hydrolysed”.
Regarding `O=C(N[C@@H](CO)C(=O)O)OCc1ccccc1` [N-Z-L-serine], the “Growth using N-protected amino acid” value with Pseudomonas putida K32 is on record as “+ (On reaching a cell density of OD650>0.5, the batch was assessed as positive)”; with Arthrobacter sp. HSZ5 [8], “+ (On reaching a cell density of OD650>0.5, the batch was assessed as positive)”.
Regarding `O=C(O)[C@@H]1CCCN1C(=O)Cc1ccccc1` [N-phenylacetyl-L-proline], the “Growth using N-protected amino acid” value in assay [7] was “+ (On reaching a cell density of OD650>0.5, the batch was assessed as positive)”; with Arthrobacter sp. HSZ5 [8] it was “+ (On reaching a cell density of OD650>0.5, the batch was assessed as positive)”.
With `O=C(O)[C@@H]1CCC(=O)N1C(=O)OCc1ccccc1` [N-Z-L-pyroglutamate, N-benzyloxycarbonyl-L-pyroglutamate], the “Growth using N-protected amino acid” value in the assay with Pseudomonas putida K32 is given as “+ (On reaching a cell density of OD650>0.5, the batch was assessed as positive)”; in [5], “+ (On reaching a cell density of OD650>0.5, the batch was assessed as positive)”; in the assay with Bacillus simplex K2, “+ (On reaching a cell density of OD650>0.5, the batch was assessed as positive)”; in assay [6] it was “+ (On reaching a cell density of OD650>0.5, the batch was assessed as positive)”; in assay [7], “+ (On reaching a cell density of OD650>0.5, the batch was assessed as positive)”; in the assay with Arthrobacter sp. HSZ5 [8], “+ (On reaching a cell density of OD650>0.5, the batch was assessed as positive)”.
For `CN(CC(=O)O)C(=O)OCc1ccccc1` [N-Z-sarcosine], the “Growth using N-protected amino acid” value with Arthrobacter sp. HSZ5 [8] is “+ (On reaching a cell density of OD650>0.5, the batch was assessed as positive)”.
Take `O=C(O)[C@@H]1CCCN1` [L-proline]: the “Inhibition … of N-acyl-L-proline acylase” value in [1] is on record as “no inhibition of the enzymatic activity at all even in high concentration”.
